These results are taken from ChEMBL document CHEMBL4033712, “Synthesis and biological evaluation of new C-12(α/β)-(N-) sulfamoyl-phenylamino-14-deoxy-andrographolide derivatives as potent anti-cancer agents” (Bioorg Med Chem Lett, 2017).

In one data set the test system is NHDF. Description: (§1) Growth inhibition of human NHDF after 72 hrs by CellTiter-Glo luminescent cell viability assay. In kind it is cell-based. As to conditions: nhdf, 72 h.
The nature of data set [1]: as §1. As to conditions: NHDF cells. Format: cell-based.
A short description of data set [2]: Growth inhibition of human NCI60 cells after 48 hrs by sulforhodamine B assay. In kind it is functional. As to conditions: NCI60, 48 h.

Each structure is given as a SMILES string.

For the compound `CN(C)C/C=C/C(=O)Nc1ccc(C(=O)Nc2ccc(Nc3ncc(Cl)c(-c4c[nH]c5ccccc45)n3)cc2)cc1`, the LC50 in the data set with NHDF came out at 0.250743 µM. In data set [1], this compound returned a GI50 at 72 h of 0.0466 µM.
In data set [2], `C=C1CC[C@@H]2[C@](C)(CO)[C@H](O)CC[C@@]2(C)[C@@H]1C/C=C1/C(=O)OC[C@H]1O` [ANDROGRAPHOLIDE] had a GI50 of 16.2 µM and a TGI of 49.7 µM. In data set [2] (read-out: LC50 (the source's name)), the CC50 was 80.9 µM.
